Laboratory results taken from ChEMBL document CHEMBL5528082 (J Med Chem, 2024).
Values after ≈ are worked out from the molar mass of the structure shown. Active and inactive are the calls of the source. No cut-off for these calls is given here.

Key:
Dihydrofolate reductase = Dihydrofolate reductase (Staphylococcus aureus, UniProt P0A017); experiment: Inhibition of Staphylococcus aureus DHFR expressed in Escherichia coli BL21 (DE3) using DHF as substrate preincubated for 10 mins followed by substrate addition measured for 10 mins in presence of NADPH by spectrophotometry
[1] = AUC (0 to t) in Sprague-Dawley rat at 5 mg/kg, iv measured for 24 hrs by LC/MS analysis; type: ADME, organism-based; conditions: in vivo
[2] = Tmax in Sprague-Dawley rat at 5 mg/kg, iv measured for 24 hrs by LC/MS analysis; type: ADME, organism-based; conditions: in vivo
Staphylococcus aureus [3] = experiment: Antibacterial activity against methicillin-resistant Staphylococcus aureus ATCC 33591 infected in C57 mouse model assessed as reduction in bacterial count at 2 to 10 mg/kg administered once a day for 3 days consecutively and measured after 24 hrs post-last dose by colony counting method; type: functional, organism-based; conditions: dose 2-10 mg/kg, time 4.0 day
[4] = AUC (0 to t) in Sprague-Dawley rat at 15 mg/kg, po measured for 24 hrs by LC/MS analysis; type: ADME, organism-based; conditions: in vivo
[5] = Oral bioavailability in Sprague-Dawley rat at 15 mg/kg measured for 24 hrs by LC/MS analysis; type: ADME, organism-based; conditions: in vivo
[6] = Cmax in Sprague-Dawley rat at 15 mg/kg, po measured for 24 hrs by LC/MS analysis; type: ADME, organism-based; conditions: in vivo
Staphylococcus aureus [7] = experiment: Antibacterial activity against methicillin-resistant Staphylococcus aureus ATCC 33591 infected in C57 mouse model assessed as clear skin structure at 2 to 10 mg/kg administered once a day for 3 days consecutively and measured after 24 hrs post-last dose by H and E staining based analysis; type: functional, organism-based; conditions: dose 2-10 mg/kg, time 4.0 day
Staphylococcus aureus [8] = experiment: Antibacterial activity against TMP-resistant Staphylococcus aureus BHKS 721 incubated for 24 hrs by CLSI based broth microdilution assay; type: functional
[9] = Acute toxicity in C57 mouse assessed as damage in lung at 800 mg/kg, po measured after 1 week by H and E staining based analysis; type: organism-based; conditions: in vivo, 168 h, time 1 weeks
Staphylococcus aureus [10] = experiment: Antibacterial activity against TMP-resistant Staphylococcus aureus BHKS 723 incubated for 24 hrs by CLSI based broth microdilution assay; type: functional

Sequence of Dihydrofolate reductase (P0A017 whole entry): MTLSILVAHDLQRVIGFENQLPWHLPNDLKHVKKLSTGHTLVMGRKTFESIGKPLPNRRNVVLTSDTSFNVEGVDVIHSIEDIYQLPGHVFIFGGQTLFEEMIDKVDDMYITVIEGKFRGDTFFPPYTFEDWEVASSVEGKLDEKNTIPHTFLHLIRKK

CC(C)c1cc(OCC2CC2)c(I)cc1Oc1cnc(N)nc1N
IC50 (Dihydrofolate reductase): 0.97 nM
AUC(0-t) at 24 h [1]: 3240 ng·h/mL
Tmax [2]: 4.8 min
Activity (Staphylococcus aureus [3]): Active
AUC(0-t) at 24 h [4]: 3920 ng·h/mL
bioavailability [5]: 40.7%
Cmax [6]: 579 ng/mL
Activity (Staphylococcus aureus [7]): Active
MIC (Staphylococcus aureus [8]): 4 µg/mL (≈ 9.09 µM)
Activity [9]: Non-Toxic
MIC (Staphylococcus aureus [10]): 2 µg/mL (≈ 4.54 µM)
